Experimental data reported in US20110230659A1, “CYCLOBUTYL PURINE DERIVATIVE, ANGIOGENESIS PROMOTING AGENT, LUMEN FORMATION PROMOTING AGENT, NEUROCYTE GROWTH PROMOTING AGENT, AND DRUG” (NATIONAL UNIVERSITY CORPORATION KAGAWA UNIVERSITY, priority 2008, published 2011).

Columns and labels:
[1] = system: Human umbilical vein endothelial cells (HUVEC); assay: Measurement of cell migration (CytoSelect 24-well Cell Migration Assay); assay type: cell-based
Protocol: Measurement of cell migration was carried out in the following manner using CytoSelect 24-well Cell Migration Assay (CBA-100, Cell Biolabs) kits. First, sample solutions were prepared by dissolving 2-Cl—C.OXT-A in physiological saline so as to achieve predetermined concentrations (0.1, 0.5, 1 mmol/l). Then, the sample solutions containing 2-Cl—C.OXT-A at the predetermined concentrations respectively were added to HuMedia-EB2 media (Kurabo) to which 2 v/v % inactivated fetal bovine serum (FBS) had been added so that their concentrations became 10 v/v %. Thus, cell migration media were prepared. The final concentrations of 2-Cl—C.OXT-A in the cell migration media were 10, 50, and 100 μmol/l.
Human umbilical vein endothelial cells (HUVEC) were suspended in a HuMedia-EB2 medium (Kurabo) to which 2 v/v % inactivated fetal bovine serum (FBS) had been added at a density of 0.5×10^6 cells/ml. Thus, a cell suspension was prepared. 300 μl of the cell suspension was added to an upper compartment (i.e., in an insert) of a polycarbonate membrane plate provided in the kit, and 500 μl of the cell migration medium was added to a lower compartment (i.e., in a well) of the plate. Then, the cells were cultured at 37° C. for 24 hours. After the completion of the culture, the membrane on the inner bottom face of the insert was wiped out with a cotton swab to remove the cells on the membrane. Then, cells having migrated to the rear face of the membrane (the membrane on the outer bottom face of the insert) were stained using a staining solution provided in the kit, and then photographed from below the insert. After the photographing, the dye was extracted with an extracting solution provided in the kit, and the absorbance at 560 nm was measured using a microplate reader. As a control, a HuMedia-EB2 medium (Kurabo) to which 2 v/v % inactivated fetal bovine serum (FBS) had been added was used instead of the cell migration medium to carry out the culture, and the cells were stained and the absorbance was measured in the same manner as in the above. Then, using the above equation (I), the relative absorbance in the culture using each of the cell migration media containing 2-Cl—C.OXT-A at the predetermined concentrations was calculated.

ERK = ERK activation (phosphorylation) immunoblot in HUVEC; assay type: cell-based, human; details: Example 8, medium No. 11: 2-Cl—C.OXT-A 100 μmol/l
[2] = system: human umbilical vein endothelial cells (HUVEC) and normal human dermal fibroblasts; assay: Measurement of lumen formation (angiogenesis kit, CD31 immunostaining, lumen area); assay type: cell-based
Protocol: The measurement of lumen formation was carried out in the following manner using commercially available angiogenesis kits (Kurabo), each including human umbilical vein endothelial cells (HUVEC) and normal human dermal fibroblasts. First, sample solutions were prepared by dissolving 2-Cl—C.OXT-A in physiological saline so as to achieve predetermined concentrations (1, 10, 100, 500 μmol/l, 1, 5, 10, 50 mmol/l). Then, the sample solutions containing 2-Cl—C.OXT-A at the predetermined concentrations respectively were added to media provided in the kits so that their concentrations became 10 v/v %. Thus, lumen formation media were prepared. The final concentrations of 2-Cl—C.OXT-A in the lumen formation media were 0.1, 1, 10, 50, 100, 500 μmol/l, 1 and 5 mmol/1.
Using each of the lumen formation media, the human umbilical vein endothelial cells (HUVEC) and the normal human dermal fibroblasts were cultured for 10 days. After the culture, the human umbilical vein endothelial cells (HUVEC) were immunostained using a lumen staining kit (for CD31 staining, Kurabo). Then, using NIH Image (image processing and analysis software), the area of a portion stained by the immunostaining (lumen area) was measured. As a control, a medium provided in the kit was used instead of the lumen formation medium to carry out the culture, and the cells were immunostained and the lumen area was measured in the same manner as in the above. Then, using the following equation (II), the relative value of lumen area in the culture using each of the lumen formation media containing 2-Cl—C.OXT-A at the predetermined concentrations was calculated.
In the present example, the relative value of lumen area was calculated in the same manner as in the lumen formation measurement in Example 1, except that the measurement was carried out with respect to four groups respectively using media Nos. 5 to 8 prepared by adding 2-Cl—C.OXT-A and PD98059 to media provided in the above-described angiogenesis kits (Kurabo) so that their concentrations became as shown in Table 2 below. In the group using the medium No. 7, the culture was conducted using the medium No. 7 from the first to third days of the culture and the medium No. 5 from the fourth to tenth days of the culture, and in the group using the medium No. 8, the culture was conducted using the medium No. 8 from the first to third days of the culture and the medium No. 6 from the fourth to tenth days of the culture.
In the present example, the relative value of lumen area was calculated in the same manner as in the lumen formation measurement in Example 1, except that the measurement was carried out with respect to six groups respectively using media Nos. 15 to 20 prepared by adding 2-Cl—C.OXT-A, VEGF (positive control), and SU5416 to media provided in the above-described angiogenesis kit (Kurabo) so that their concentrations became as shown in Table 4 below. In the group using the medium No. 16, the culture was conducted using the medium No. 16 from the first to third days of the culture and the medium No. 15 from the fourth to tenth days of the culture; in the group using the medium No. 18, the culture was conducted using the medium No. 18 from the first to third days of the culture and the medium No. 17 from the fourth to tenth days of the culture; and in the group using the medium No. 20, the culture was conducted using the medium No. 20 from the first to third days of the culture and the medium No. 19 from the fourth to tenth days of the culture.

Nc1nc(Cl)nc2c1ncn2C1CC(CO)C1CO (stereo not drawn) [2-Cl—C.OXT-A, 6-amino-2-chloro-9-[trans-trans-2,3-bis(hydroxymethyl)cyclobutyl]purine]
stained area (cell migration photographs) ([1]; final concentration 10 μmol/l to 100 μmol/l, 24 hours, versus control): larger than that in the control | relative absorbance (cell migration) ([1]; final concentration 50 μmol/l): 2.1 | cell migration promoting-activity compared with VEGF ([1]; final concentration 50 μmol/l, VEGF 10 ng/ml): higher than that in Comparative Example 7 | relative absorbance (cell migration) ([1]; final concentration 10 to 100 μmol/l, versus control): higher than that of the control | migration promoting-activity compared with physiological saline ([1]; final concentrations 50 and 100 μmol/l, p<0.02): significantly higher than that in Comparative Example 8 | pERK (ERK): increased | relative value of lumen area compared with control ([2]; Example 7, medium No. 6: only 2-Cl—C.OXT-A 10 μmol/l): about 3 fold | lumen area ([2]; Example 9, medium No. 17: 2-Cl—C.OXT-A 10 μmol/l): increased markedly | relative value of lumen area ([2]; final concentration 100 nmol/l to 1 mmol/l, versus control): larger than that of the control | stained area (lumen formation, immunostaining photographs) ([2]; final concentration 10 μmol/l to 1 mmol/l, 10 days, versus control): larger than that in the control | relative value of lumen area ([2]; final concentration 100 μmol/l, highest activity): 3.8 | lumen formation promoting-activity compared with VEGF (relative value of lumen area) ([2]; final concentration 10 to 500 μmol/l, VEGF 10 ng/ml): higher than that in Comparative Example 7 | lumen formation promoting-activity compared with VEGF (photographs) ([2]; final concentrations 10 and 100 μmol/l, VEGF 10 ng/ml): higher than that in Comparative Example 7
